Reference: PubChem BioAssay (NCI)
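Tested at 5 concentrations; 48 h exposure; 96-well plates; endpoints linearly interpolated, else capped at highest concentration. Here, GI50 denotes the concentration required for 50% inhibition of growth. TGI: concentration producing complete growth inhibition.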

How the values were obtained:
Assay in all cases: NCI anticancer screen, dose series, 48 h
[1] = test system: HL-60(TB) leukemia
[2] = test system: CCRF-CEM leukemia
[3] = test system: KM12 colon
[4] = test system: A549 NSCLC
[5] = test system: HS 578T breast
[6] = test system: MDA-MB-231 breast
[7] = test system: UACC-257 melanoma
[8] = test system: TK-10 renal
[9] = test system: HCT-116 colon
[10] = test system: BT-549 breast
[11] = test system: MOLT-4 leukemia
[12] = test system: HCC-2998 colon
[13] = test system: SK-MEL-2 melanoma
[14] = test system: ACHN renal
[15] = test system: SR leukemia
[16] = test system: SF-295 CNS
[17] = test system: SNB-75 CNS
[18] = test system: HCT-15 colon
[19] = test system: MCF7 breast
[20] = test system: RPMI-8226 leukemia
[21] = test system: UO-31 renal
[22] = test system: NCI-H23 lung
[23] = test system: M14 melanoma
[24] = test system: HT29 colon
[25] = test system: NCI/ADR-RES ovarian
[26] = test system: SK-MEL-28 melanoma
[27] = test system: RXF 393 renal
[28] = test system: SF-268 CNS
[29] = test system: HOP-62 NSCLC
[30] = test system: CAKI-1 renal
[31] = test system: SK-OV-3 ovarian
[32] = test system: SNB-19 CNS
[33] = test system: UACC-62 melanoma
[34] = test system: U251 CNS
[35] = test system: SW-620 colon
[36] = test system: MDA-MB-435
[37] = test system: PC-3 prostate
[38] = test system: EKVX NSCLC
[39] = test system: OVCAR-5 ovarian
[40] = test system: NCI-H226 lung
[41] = test system: NCI-H522 lung
[42] = test system: IGROV1 ovarian
[43] = test system: HOP-92 NSCLC
[44] = test system: SK-MEL-5 melanoma
[45] = test system: SF-539 CNS
[46] = test system: DU-145 prostate
[47] = test system: 786-0 renal
[48] = test system: NCI-H460 lung
[49] = test system: OVCAR-4 ovarian
[50] = test system: OVCAR-8 ovarian
[51] = test system: A498 renal
[52] = test system: T-47D breast
[53] = test system: MALME-3M melanoma
[54] = test system: SN12C renal
[55] = test system: COLO 205 colon
[56] = test system: K-562 leukemia
[57] = test system: LOX IMVI melanoma

C=CCN(C)S(=O)(=O)/N=C1\NC(=O)NC1=C(Cl)Cl
GI50 [1]: 2.06 µM
TGI [1]: 5.31 µM
GI50 [2]: 1.94 µM
TGI [2]: 4.68 µM
GI50 [3]: 0.437 µM
TGI [3]: 25.6 µM
GI50 [4]: 5.27 µM
TGI [4]: 24 µM
GI50 [5]: 3.64 µM
TGI [5]: 30.1 µM
GI50 [6]: 1.86 µM
TGI [6]: 3.42 µM
GI50 [7]: 3.56 µM
TGI [7]: 17 µM
GI50 [8]: 9.07 µM
TGI [8]: > 100 µM
GI50 [9]: 1.84 µM
TGI [9]: 3.55 µM
GI50 [10]: 2.1 µM
TGI [10]: 4.49 µM
GI50 [11]: 2.36 µM
TGI [11]: 5.93 µM
GI50 [12]: 1.76 µM
TGI [12]: 3.43 µM
GI50 [13]: 2.9 µM
TGI [13]: 7.76 µM
GI50 [14]: 1.77 µM
TGI [14]: 3.18 µM
GI50 [15]: 0.693 µM
TGI [15]: 6.68 µM
GI50 [16]: 13.6 µM
TGI [16]: 26.7 µM
GI50 [17]: 1.82 µM
TGI [17]: 13.1 µM
GI50 [18]: 1.63 µM
TGI [18]: 3.22 µM
GI50 [19]: 0.387 µM
TGI [19]: > 100 µM
GI50 [20]: 0.404 µM
TGI [20]: 9.84 µM
GI50 [21]: 2.82 µM
TGI [21]: 11.9 µM
GI50 [22]: 1.85 µM
TGI [22]: 3.6 µM
GI50 [23]: 1.89 µM
TGI [23]: 3.73 µM
GI50 [24]: 2.15 µM
TGI [24]: 4.87 µM
GI50 [25]: 2.12 µM
TGI [25]: 4.91 µM
GI50 [26]: 1.78 µM
TGI [26]: 3.26 µM
GI50 [27]: 1.7 µM
TGI [27]: 3.37 µM
GI50 [28]: 3.17 µM
TGI [28]: 10.7 µM
GI50 [29]: 3.28 µM
TGI [29]: 14.4 µM
GI50 [30]: 1.72 µM
TGI [30]: 3.15 µM
GI50 [31]: 17 µM
TGI [31]: 31 µM
GI50 [32]: 2.88 µM
TGI [32]: 9.29 µM
GI50 [33]: 1.75 µM
TGI [33]: 3.39 µM
GI50 [34]: 1.87 µM
TGI [34]: 4.05 µM
GI50 [35]: 1.9 µM
TGI [35]: 3.72 µM
GI50 [36]: 1.93 µM
TGI [36]: 3.86 µM
GI50 [37]: 2.35 µM
TGI [37]: 6.2 µM
GI50 [38]: 1.82 µM
TGI [38]: 3.64 µM
GI50 [39]: 1.69 µM
TGI [39]: 3.13 µM
GI50 [40]: 2.09 µM
TGI [40]: 4.63 µM
GI50 [41]: 1.97 µM
TGI [41]: 4.16 µM
GI50 [42]: 1.84 µM
TGI [42]: 3.65 µM
GI50 [43]: 1.76 µM
TGI [43]: 3.4 µM
GI50 [44]: 2 µM
TGI [44]: 4.21 µM
GI50 [45]: 1.79 µM
TGI [45]: 3.3 µM
GI50 [46]: 4.08 µM
TGI [46]: 13.6 µM
GI50 [47]: 2.39 µM
TGI [47]: 5.79 µM
GI50 [48]: 2.71 µM
TGI [48]: 7.1 µM
GI50 [49]: 1.82 µM
TGI [49]: 3.36 µM
GI50 [50]: 2.33 µM
TGI [50]: 5.69 µM
GI50 [51]: 12 µM
TGI [51]: 24.6 µM
GI50 [52]: 3.25 µM
TGI [52]: > 100 µM
GI50 [53]: 1.85 µM
TGI [53]: 3.58 µM
GI50 [54]: 1.77 µM
TGI [54]: 3.29 µM
GI50 [55]: 2.02 µM
TGI [55]: 4.37 µM

CNC(=O)c1c(NC(=O)c2cccc(C(F)(F)F)c2F)sc2c1CCC(=O)C2
GI50 [1]: 0.275 µM
TGI [1]: > 100 µM
GI50 [2]: 0.109 µM
TGI [2]: > 100 µM
GI50 [5]: 0.379 µM
TGI [5]: > 100 µM
GI50 [10]: 0.406 µM
TGI [10]: > 100 µM
GI50 [11]: 0.341 µM
TGI [11]: > 100 µM
GI50 [14]: 0.301 µM
TGI [14]: 1.03 µM
GI50 [15]: 0.112 µM
TGI [15]: > 100 µM
GI50 [17]: 0.163 µM
TGI [17]: 0.794 µM
GI50 [56]: 0.174 µM
TGI [56]: > 100 µM
GI50 [57]: 0.466 µM
TGI [57]: > 100 µM
GI50 [19]: 0.283 µM
TGI [19]: > 100 µM
GI50 [20]: 0.141 µM
TGI [20]: 0.676 µM
GI50 [27]: 0.378 µM
TGI [27]: > 100 µM
GI50 [28]: 0.357 µM
TGI [28]: > 100 µM
GI50 [29]: 0.777 µM
TGI [29]: > 100 µM
GI50 [32]: 0.361 µM
TGI [32]: > 100 µM
GI50 [34]: 0.259 µM
TGI [34]: > 100 µM
GI50 [37]: 0.11 µM
TGI [37]: > 100 µM
GI50 [42]: 0.483 µM
TGI [42]: > 100 µM
GI50 [43]: 0.208 µM
TGI [43]: 0.636 µM
GI50 [50]: 0.349 µM
TGI [50]: > 100 µM
GI50 [54]: 0.305 µM
TGI [54]: > 100 µM
